Measurements: patent US5089623A, “Certain imidate insecticides” (Imperial Chemical Industries Plc, priority 1990, dated 1992)

Tests used:
Assay type in all cases: in vivo
[1] = system: Housefly [Musca domestica]; assay: Housefly insecticidal test (HF); conditions: per 25 female houseflies, 48 hours
[2] = system: Tobacco Budworm [Heliothis virescens (Fabricius)] eggs; assay: Tobacco budworm egg test (TBW-E); conditions: percent in solution
[3] = system: Cabbage Looper [Trichoplusia ni (Hubner)]; assay: Cabbage looper test (CL); conditions: second-instar larvae, 3-5 days, percent in solution
[4] = system: Aster Leafhopper [Macrosteles fascifrens (Stal)]; assay: Aster leafhopper test (LH); conditions: adults/nymphs, 48 hours, percent in solution
[5] = system: Maize weevil [Sitophilus Zeamais (Motschulsky)]; assay: Maize weevil test (MW); conditions: adult weevils, treated corn seeds, 48 hours, percent in solution
How it was run: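 Adult weevils (10) were placed with four corn seeds that had been dipped 2-3 s in compound dissolved in 50:50 acetone:water, then dried, and held at about 25° C. Mortality was scored at 48 h. LC50 was taken from dosage-mortality curves and expressed as percent compound in solution, from a 0.01% top concentration.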

[6] = system: Rice water weevil [Lissorhoptrus oryzophilus (Kuschel)]; assay: Rice water weevil test (RWW); conditions: per weevil, topical, female adults, 48 hours
Method: The compounds in Tables 1 and 2 above were tested for insecticidal activity using the following testing procedures. LC50 values, based on the results of these tests and calculated according to dosage-mortality curves, are expressed in Table 3.
Rice water weevil [Lissorhoptrus oryzophilus (Kuschel)]
Test compounds were diluted in acetone. Droplets (1 ul) of test solutions were applied to the ventral abdomens of ten female adult weevils. The treated weevils were placed in containers with wet cotton balls and rice foliage. The containers were covered and kept at a temperature of about 25° C. Mortality was recorded after 48 hours. […] The LC50 values are expressed below in Table 3 under the heading "RWW" in terms of μg of test compound per weevil.

[7] = system: Tobacco Budworm [Heliothis virescens (Fabricius)]; assay: Tobacco budworm contact test (TBW-C); conditions: second-instar larvae, 5 days, percent in solution
How it was run: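 Cotton cotyledons dipped 2–3 s in compound in 50:50 acetone–water, dried, then infested with 5 second-instar larvae and held 5 days at high humidity before scoring mortality.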

Compound	LC50 HF [1]	LC50 TBW E [2]	LC50 CL [3]	LC50 LH [4]	LC50 MW [5]	LC50 RWW [6]	LC50 TBW C [7]
CC(C)C(=Nc1ccc(C(F)(F)F)cc1)OCc1cccc(Oc2ccccc2)c1 [Compound 68]	37 µg	0.009%	0.006%	0.0001%	> 0.01%	0.15 µg	–
CCC(=Nc1ccc(F)c(Cl)c1)OCc1cccc(Oc2ccccc2)c1 [Compound 85]	7 µg	> 0.1%	0.004%	0.003%	> 0.01%	> 2.5 µg	–
CC(C)C(=Nc1ccc(F)c(Cl)c1)OCc1cccc(Oc2cccc(F)c2)c1 [Compound 125]	12 µg	0.025%	0.0007%	> 0.05%	> 0.01%	> 2.5 µg	–
CC(C)C(=Nc1ccc(F)c(Cl)c1)OCc1cccc(Oc2ccc(F)cc2F)c1 [Compound 191]	29 µg	0.04%	0.00023%	> 0.05%	0.004%	> 2.5 µg	–
CC(C)C(=Nc1c(F)c(F)c(F)c(F)c1F)OCc1cccc(Oc2ccc(F)cc2)c1 [Compound 198]	52 µg	> 0.1%	0.0005%	0.05%	0.003%	> 2.5 µg	–
CC(C)C(=Nc1ccc(Cl)c(Cl)c1)OCc1ccc(F)c(Oc2ccc(F)cc2)c1 [Compound 289]	10 µg	0.006%	0.00007%	0.0003%	> 0.01%	0.082 µg	–
CC(C)C(=Nc1ccc(Cl)c(Cl)c1)OCc1ccc(F)c(Oc2ccc(Cl)cc2)c1 [Compound 296]	38 µg	0.025%	0.00025%	0.0003%	–	0.14 µg	0.00045%
CC(C)C(=Nc1ccc(OC(F)(F)F)cc1)OCc1ccc(F)c(Oc2ccccc2)c1 [Compound 338]	26 µg	0.01%	0.000065%	–	0.0053%	0.044 µg	0.00037%
CC(C)C(=Nc1ccc(Br)c(Cl)c1)OCc1ccc(F)c(Oc2ccc(Cl)cc2)c1 [Compound 381]	< 100 µg	0.018%	0.00092%	–	> 0.01%	> 2.5 µg	–
CC(C)C(=Nc1ccc(Br)c(Cl)c1)OCc1ccc(F)c(Oc2ccc(F)cc2)c1 [Compound 382]	< 100 µg	0.027%	0.00029%	–	> 0.01%	> 2.5 µg	–
CC(C)C(=Nc1cccc(Br)c1)OCc1ccc(F)c(Oc2ccccc2)c1 [Compound 387]	< 100 µg	0.05%	0.0012%	–	> 0.01%	> 2.5 µg	–
C=C(C)C(=Nc1ccc(C(F)(F)F)cc1)OCc1ccc(F)c(Oc2ccccc2)c1 [Compound 431]	9.8 µg	0.025%	0.00017%	–	0.0037%	0.084 µg	–
CC(C)C(=Nc1ccc(C(F)(F)F)c(Br)c1)OCc1ccc(F)c(Oc2ccc(Cl)cc2)c1 [Compound 433]	< 100 µg	0.02%	0.00017%	–	0.005%	0.078 µg	–
CC(C)C(=Nc1ccc(Cl)c(OCC(F)(F)F)c1)OCc1ccc(F)c(Oc2ccc(Cl)cc2)c1 [Compound 452]	> 100 µg	< 0.1%	0.0017%	–	> 0.01%	0.1 µg	–
